# Data: the supplement of paper PMC10307832
# Experiments:
# Test in all cases: relative viability (nuclei count vs DMSO), 5 days (fraction); higher = more cells survive
# Cediranib + Pemetrexed = compound: COc1cc2c(Oc3ccc4[nH]c(C)cc4c3F)ncnc2cc1OCCCN1CCCC1 [Cediranib] + Nc1nc2[nH]cc(CCc3ccc(C(=O)N[C@@H](CCC(=O)O)C(=O)O)cc3)c2c(=O)[nH]1 [Pemetrexed] (partner 0.2 µM)
# Method in brief: (§1)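 A single step with final 0.05% Triton X-100, 1% formaldehyde and 1 ug/ml Hoechst fixed the cells and stained nuclei 5 days after treatment. Lung cancer cell lines in 1536-well plates had been treated by pin tool the day after seeding with one drug alone or a fixed anchor-drug dose plus five library-drug doses (not always all listed) in √10 steps, and nuclei were counted on 4× images. Relative viability is the ratio of nuclei in treated wells to nuclei in vehicle wells, taken as the median of duplicate plates.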
# Cediranib + Phenformin = compound: COc1cc2c(Oc3ccc4[nH]c(C)cc4c3F)ncnc2cc1OCCCN1CCCC1 [Cediranib] + N=C(N)NC(=N)NCCc1ccccc1 [Phenformin] (partner 250 µM)
# Method in brief: as §1
# Cediranib + Trametinib = compound: COc1cc2c(Oc3ccc4[nH]c(C)cc4c3F)ncnc2cc1OCCCN1CCCC1 [Cediranib] + CC(=O)Nc1cccc(-n2c(=O)n(C3CC3)c(=O)c3c(Nc4ccc(I)cc4F)n(C)c(=O)c(C)c32)c1 [Trametinib] (partner 0.02 µM)
# Method in brief: as §1
# Cediranib + Palbociclib = compound: COc1cc2c(Oc3ccc4[nH]c(C)cc4c3F)ncnc2cc1OCCCN1CCCC1 [Cediranib] + CC(=O)c1c(C)c2cnc(Nc3ccc(N4CCNCC4)cn3)nc2n(C2CCCC2)c1=O [Palbociclib] (partner 0.5 µM)
# Method in brief: as §1
Cell Line,relative viability (Cediranib + Pemetrexed; first compound 0.04 µM),relative viability (Cediranib + Pemetrexed; first compound 0.1265 µM),relative viability (Cediranib + Pemetrexed; first compound 0.4 µM),relative viability (Cediranib + Pemetrexed; first compound 1.265 µM),relative viability (Cediranib + Pemetrexed; first compound 4 µM),relative viability (Cediranib + Phenformin; first compound 0.04 µM),relative viability (Cediranib + Phenformin; first compound 0.1265 µM),relative viability (Cediranib + Phenformin; first compound 0.4 µM),relative viability (Cediranib + Phenformin; first compound 1.265 µM),relative viability (Cediranib + Phenformin; first compound 4 µM),relative viability (Cediranib + Trametinib; first compound 0.04 µM),relative viability (Cediranib + Trametinib; first compound 0.1265 µM),relative viability (Cediranib + Trametinib; first compound 0.4 µM),relative viability (Cediranib + Trametinib; first compound 1.265 µM),relative viability (Cediranib + Trametinib; first compound 4 µM),relative viability (Cediranib + Palbociclib; first compound 0.04 µM),relative viability (Cediranib + Palbociclib; first compound 0.1265 µM),relative viability (Cediranib + Palbociclib; first compound 0.4 µM),relative viability (Cediranib + Palbociclib; first compound 1.265 µM),relative viability (Cediranib + Palbociclib; first compound 4 µM)
LK-2,0.324,0.202,0.247,0.177,0.209,0.38,0.175,0.35,0.418,0.29,0.889,0.573,0.668,0.742,0.643,0.998,0.693,0.687,0.764,0.724
SW 1573,0.981,0.954,0.844,0.826,0.908,0.35,0.336,0.329,0.394,0.416,0.667,0.624,0.57,0.55,0.496,0.362,0.412,0.394,0.389,0.382
SK-LU-1,1.11,1.01,0.969,0.956,1.18,0.541,0.708,0.497,0.456,0.439,0.547,0.377,0.445,0.381,0.481,0.434,0.441,0.385,0.375,0.383
NCI-H23,0.602,0.693,0.525,0.692,0.699,0.756,–,0.724,0.683,0.867,0.483,0.426,0.419,0.325,0.424,0.585,0.601,0.547,0.429,0.56
NCI-H1355,1.13,1.06,0.95,1.02,1.08,0.441,0.456,0.427,0.442,0.408,0.401,0.432,0.417,0.439,0.464,0.413,0.426,0.367,0.39,0.423
